According to ChEMBL document CHEMBL3885881, “DrugMatrix”:

Species: Rattus norvegicus
Assay: DrugMatrix - Regimen: Daily Repeat
Format: toxicity, organism-based, Sprague-Dawley
Set-up: regimen Daily Repeat, gender Male, age 6-8 weeks
Details: in vivo, po, route oral GAVAGE, […]; for ABSOLUTE BASOPHIL / ABSOLUTE EOSINOPHIL / ABSOLUTE LYMPHOCYTE / ABSOLUTE MONOCYTE / ABSOLUTE SEGMENTED NEUTROPHIL / BASOPHIL / EOSINOPHIL / ERYTHROCYTE COUNT / HEMATOCRIT / HEMOGLOBIN / LEUKOCYTE COUNT / LYMPHOCYTE / MEAN CORPUSCULAR HEMOGLOBIN / MEAN CORPUSCULAR HEMOGLOBIN CONCENTRATION / MEAN CORPUSCULAR VOLUME / MONOCYTE / NEUTROPHIL / NUCLEATED RED BLOOD CELLS / PLATELET COUNT: tissue Blood; for ALANINE AMINOTRANSFERASE / ALBUMIN / ALKALINE PHOSPHATASE / ASPARTATE AMINOTRANSFERASE / BLOOD UREA NITROGEN / CARBON DIOXIDE / CHLORIDE / CHOLESTEROL / CREATINE PHOSPHOKINASE / CREATININE / GLUCOSE / LACTATE DEHYDROGENASE / LIPASE / PHOSPHORUS / POTASSIUM / SODIUM / TOTAL BILIRUBIN / TOTAL PROTEIN / URIC ACID: tissue Plasma
[1] = 0 mg/kg, 72 h, dose level Control, time 3 day
[2] = 0 mg/kg, 120 h, dose level Control, time 5 day
[3] = 100 mg/kg, 72 h, dose level Low, time 3 day

Compound: CC(=O)Nc1ccc(O)cc1 [ACETAMINOPHEN]
- ABSOLUTE BASOPHIL [1]: 0 CELLS/uL
- ABSOLUTE EOSINOPHIL [1]: 0 CELLS/uL
- ABSOLUTE LYMPHOCYTE [1]: 6275.67 CELLS/uL
- ABSOLUTE MONOCYTE [1]: 40.67 CELLS/uL
- ABSOLUTE SEGMENTED NEUTROPHIL [1]: 633.67 CELLS/uL
- BASOPHIL [1]: 0%
- EOSINOPHIL [1]: 0%
- ERYTHROCYTE COUNT [1]: 5.2 x10E6/uL
- HEMATOCRIT [1]: 32.78%
- HEMOGLOBIN [1]: 12.98 G/DL
- LEUKOCYTE COUNT [1]: 6.95 x10E3/uL
- LYMPHOCYTE [1]: 90.17%
- MEAN CORPUSCULAR HEMOGLOBIN [1]: 24.97 pg
- MEAN CORPUSCULAR HEMOGLOBIN CONCENTRATION [1]: 39.62 G/DL
- MEAN CORPUSCULAR VOLUME [1]: 63.03 fL
- MONOCYTE [1]: 0.67%
- NEUTROPHIL [1]: 9.17%
- NUCLEATED RED BLOOD CELLS [1]: 0 /100WBC
- PLATELET COUNT [1]: 1082.83 x10E3/uL
- ALANINE AMINOTRANSFERASE [1]: 69.67 u/L
- ALBUMIN [1]: 4.15 G/DL
- ALKALINE PHOSPHATASE [1]: 430.5 u/L
- ASPARTATE AMINOTRANSFERASE [1]: 90.83 u/L
- BLOOD UREA NITROGEN [1]: 13 mg/dL
- CARBON DIOXIDE [1]: 33 mmol/L
- CHLORIDE [1]: 99.17 MEQ/L
- CHOLESTEROL [1]: 70.5 mg/dL
- CREATINE PHOSPHOKINASE [1]: 253.33 u/L
- CREATININE [1]: 0.13 mg/dL
- GLUCOSE [1]: 157.17 mg/dL
- LACTATE DEHYDROGENASE [1]: 85 u/L
- LIPASE [1]: 10 u/L
- PHOSPHORUS [1]: 10.2 mg/dL
- POTASSIUM [1]: 5.78 MEQ/L
- SODIUM [1]: 144.12 MEQ/L
- TOTAL BILIRUBIN [1]: 0.2 mg/dL
- TOTAL PROTEIN [1]: 5.8 G/DL
- URIC ACID [1]: 0.8 mg/dL
- ABSOLUTE BASOPHIL [2]: 0 CELLS/uL
- ABSOLUTE EOSINOPHIL [2]: 0 CELLS/uL
- ABSOLUTE LYMPHOCYTE [2]: 10431 CELLS/uL
- ABSOLUTE MONOCYTE [2]: 90.5 CELLS/uL
- ABSOLUTE SEGMENTED NEUTROPHIL [2]: 1111.83 CELLS/uL
- BASOPHIL [2]: 0%
- EOSINOPHIL [2]: 0%
- ERYTHROCYTE COUNT [2]: 5.51 x10E6/uL
- HEMATOCRIT [2]: 34.67%
- HEMOGLOBIN [2]: 13.5 G/DL
- LEUKOCYTE COUNT [2]: 11.63 x10E3/uL
- LYMPHOCYTE [2]: 89.67%
- MEAN CORPUSCULAR HEMOGLOBIN [2]: 24.5 pg
- MEAN CORPUSCULAR HEMOGLOBIN CONCENTRATION [2]: 38.95 G/DL
- MEAN CORPUSCULAR VOLUME [2]: 62.87 fL
- MONOCYTE [2]: 0.67%
- NEUTROPHIL [2]: 9.67%
- NUCLEATED RED BLOOD CELLS [2]: 0 /100WBC
- PLATELET COUNT [2]: 1052.67 x10E3/uL
- ALANINE AMINOTRANSFERASE [2]: 54.67 u/L
- ALBUMIN [2]: 4.15 G/DL
- ALKALINE PHOSPHATASE [2]: 359.83 u/L
- ASPARTATE AMINOTRANSFERASE [2]: 83 u/L
- BLOOD UREA NITROGEN [2]: 13.5 mg/dL
- CARBON DIOXIDE [2]: 27.17 mmol/L
- CHLORIDE [2]: 98.5 MEQ/L
- CHOLESTEROL [2]: 66.83 mg/dL
- CREATINE PHOSPHOKINASE [2]: 256.17 u/L
- CREATININE [2]: 0.19 mg/dL
- GLUCOSE [2]: 171.33 mg/dL
- LACTATE DEHYDROGENASE [2]: 91.5 u/L
- LIPASE [2]: 10.5 u/L
- PHOSPHORUS [2]: 8.72 mg/dL
- POTASSIUM [2]: 5.34 MEQ/L
- SODIUM [2]: 142.53 MEQ/L
- TOTAL BILIRUBIN [2]: 0.2 mg/dL
- TOTAL PROTEIN [2]: 6.05 G/DL
- URIC ACID [2]: 0.6 mg/dL
- ABSOLUTE BASOPHIL [3]: 0 CELLS/uL
- ABSOLUTE EOSINOPHIL [3]: 0 CELLS/uL
- ABSOLUTE LYMPHOCYTE [3]: 7022 CELLS/uL
- ABSOLUTE MONOCYTE [3]: 162.33 CELLS/uL
- ABSOLUTE SEGMENTED NEUTROPHIL [3]: 715.67 CELLS/uL
- BASOPHIL [3]: 0%
- EOSINOPHIL [3]: 0%
- ERYTHROCYTE COUNT [3]: 5.13 x10E6/uL
- HEMATOCRIT [3]: 32.6%
- HEMOGLOBIN [3]: 12.9 G/DL
- LEUKOCYTE COUNT [3]: 7.9 x10E3/uL
- LYMPHOCYTE [3]: 88.67%
- MEAN CORPUSCULAR HEMOGLOBIN [3]: 25.13 pg
- MEAN CORPUSCULAR HEMOGLOBIN CONCENTRATION [3]: 39.57 G/DL
- MEAN CORPUSCULAR VOLUME [3]: 63.53 fL
- MONOCYTE [3]: 2%
- NEUTROPHIL [3]: 9.33%
- NUCLEATED RED BLOOD CELLS [3]: 0 /100WBC
- PLATELET COUNT [3]: 1191.67 x10E3/uL
- ALANINE AMINOTRANSFERASE [3]: 62 u/L
- ALBUMIN [3]: 4.1 G/DL
- ALKALINE PHOSPHATASE [3]: 340 u/L
- ASPARTATE AMINOTRANSFERASE [3]: 77.67 u/L
- BLOOD UREA NITROGEN [3]: 15.33 mg/dL
- CARBON DIOXIDE [3]: 33.67 mmol/L
- CHLORIDE [3]: 98.67 MEQ/L
- CHOLESTEROL [3]: 85 mg/dL
- CREATINE PHOSPHOKINASE [3]: 201.67 u/L
- CREATININE [3]: 0.15 mg/dL
- GLUCOSE [3]: 165 mg/dL
- LACTATE DEHYDROGENASE [3]: 82.67 u/L
- LIPASE [3]: 10 u/L
- PHOSPHORUS [3]: 11 mg/dL
- POTASSIUM [3]: 5.65 MEQ/L
- SODIUM [3]: 145.13 MEQ/L
- TOTAL BILIRUBIN [3]: 0.2 mg/dL
- TOTAL PROTEIN [3]: 5.9 G/DL
- URIC ACID [3]: 0.73 mg/dL
